Consider 10 molecules from paper PMC10425983 (ACS Infectious Diseases, 2023).

Data set [1] relates to L. infantum (MHOM/MA(BE)/67/ITMAP263) amastigotes. The data set can be described thus: L. infantum intramacrophage amastigote assay. The data set is classed as cell-based, Leishmania infantum. Particulars: for EC50: Leishmania infantum, 120 h, read-out: L.inf pEC50 (converted); for SI: ratio CC50 μM (PMM)/EC50 μM (L.inf).
A short description of data set [2]: Rat hepatocyte intrinsic clearance. The data set is classed as in vitro ADME. Particulars: for hepatocyte CLint: rat, rat hepatocytes.
Data set [3] is described as follows: Human liver microsome intrinsic clearance. The data set is classed as in vitro ADME. Particulars: for microsomal CLint at 3 µM: human, human liver microsomes, pH 7.4, HLM clint. On the technique in general: Microsomes from liver hold many membrane-bound enzymes, among them those of drug oxidation.
Data set [4] is described as follows: Thermodynamic aqueous solubility. The data set is classed as physicochemical.
The nature of data set [5]: Cytotoxicity toward primary peritoneal mouse macrophages. The data set is classed as cell-based. Particulars: Swiss, mouse, primary peritoneal mouse macrophages (PMM), PMM pCC50, primary mouse macrophages; highest in-test concentration 64 μM.

By hepatocyte CLint is commonly meant a measure of how fast metabolising enzymes remove a compound, apart from limits set by blood flow. What is called microsomal CLint is a measure of how fast metabolising enzymes remove a compound, apart from limits set by blood flow. A lower microsomal CLint goes with greater metabolic stability. For orientation: CC50 means the concentration giving 50% cytotoxicity. Regarding `c1ccc(-c2cn3ccccc3n2)nc1` [Compound 11a, 2-(Pyridin-2-yl)imidazo[1,2-a]pyridine], in data set [1], the EC50 is 50.1 µM and the SI is 1. The molecule further gave a hepatocyte CLint in data set [2] of 140 µL/min/1e6 cells. Also, the microsomal CLint at 3 µM in data set [3] worked out at 130 µL/min/mg. The molecule also displayed an aq. sol. in data set [4] of 828 µM. For the same molecule, in data set [5], the CC50 at 5 days was greater than 63.1 µM.

For `Fc1ccc(Nc2c(-c3ccccn3)nc3ccc(-c4cnoc4)cn23)cc1` [Compound 3q, N-(4-Fluorophenyl)-6-(1,2-oxazol-4-yl)-2-(pyridin-2-yl)imidazo[1,2-a]pyridin-3-amine], in data set [1], the EC50 is 25.1 µM and the SI is reported as 3. For the same molecule, the intrinsic clearance (hepatocyte CLint) in data set [2] came out at 128 µL/min/1e6 cells. For the same molecule, the microsomal CLint at 3 µM in data set [3] was found to be 75 µL/min/mg. The same molecule registered an aq. sol. in data set [4] of 3 µM. Further, the half-maximal cytotoxic concentration (CC50) at 5 days in data set [5] was greater than 63.1 µM.

Turning to `COc1cccc2nc(-c3ccccn3)c(Nc3ccc(F)cc3)n12` [Compound 3c, N-(4-Fluorophenyl)-5-methoxy-2-(pyridin-2-yl)imidazo[1,2-a]pyridin-3-amine], in data set [1], the EC50 was 7.94 µM and the SI was 1. In addition, the intrinsic clearance (hepatocyte CLint) in data set [2] turned out to be 30 µL/min/1e6 cells. The same molecule displayed an intrinsic metabolic clearance (microsomal CLint) at 3 µM in data set [3] of 28 µL/min/mg. Besides, the aq. sol. in data set [4] stood at 62 µM. Moreover, the half-maximal cytotoxic concentration (CC50) at 5 days in data set [5] is 7.94 µM.

With `COc1ccn2c(N)c(-c3ccccn3)nc2c1` [Compound 7b, 7-Methoxy-2-(pyridin-2-yl)imidazo[1,2-a]pyridin-3-amine], in data set [1], the EC50 was 31.6 µM and the SI was 2. The same molecule gave a hepatocyte CLint in data set [2] of 7.1 µL/min/1e6 cells. In data set [3], the intrinsic clearance (microsomal CLint) at 3 µM was found to be 120 µL/min/mg. The molecule further showed an aq. sol. in data set [4] of 290 µM. In data set [5], this molecule returned a cytotoxic concentration (CC50) at 5 days greater than 63.1 µM.

Take `Fc1ccc(Nc2c(-c3ccccn3)nc3cc(F)ccn23)cc1` [Compound 3h, 7-Fluoro-N-(4-fluorophenyl)-2-(pyridin-2-yl)imidazo[1,2-a]pyridin-3-amine]: in data set [1], the EC50 is 25.1 µM and the SI is reported as 3. In data set [2], this molecule showed a hepatocyte CLint of 146 µL/min/1e6 cells. This molecule returned a microsomal CLint at 3 µM in data set [3] greater than 300 µL/min/mg. This molecule returned an aq. sol. in data set [4] of 0.1 µM. Besides, the CC50 at 5 days in data set [5] was greater than 63.1 µM.

As for `Fc1ccc(Nc2c(-c3ccccn3)nc3ccccn23)nc1` [Compound 8, 5-Fluoro-N-[2-(pyridin-2-yl)imidazo[1,2-a]pyridin-3-yl]pyridin-2-amine], in data set [2] (clearance class in words), the “metabolic stability class in rat hepatocytes” value is recorded as “moderate (5.1 ≤ moderate ≤27)”. Also, the “metabolic stability class in human liver microsomes” value in data set [3] (clearance class in words) is recorded as “moderate (8.6 ≤ moderate ≤47)”.

As for `CS(=O)(=O)c1ccc2nc(-c3ccccn3)c(Nc3ccc(F)cc3)n2c1` [Compound 3o, N-(4-Fluorophenyl)-6-methanesulfonyl-2-(pyridin-2-yl)imidazo[1,2-a]pyridin-3-amine], in data set [1], the EC50 was 31.6 µM and the SI is 1. In data set [2], this molecule showed a hepatocyte CLint greater than 300 µL/min/1e6 cells. In data set [4], this molecule registered an aq. sol. of 5 µM. In addition, the midpoint of cytotoxicity in data set [5], the CC50 at 5 days, lay at 31.6 µM.

For `COc1ccn2cc(-c3ccccn3)nc2c1` [Compound 11b, 7-Methoxy-2-(pyridin-2-yl)imidazo[1,2-a]pyridine], in data set [1], the EC50 was 25.1 µM and the SI amounted to 3. In data set [3], this molecule came in with an intrinsic clearance (microsomal CLint) at 3 µM greater than 300 µL/min/mg. This molecule registered an aq. sol. in data set [4] of 723 µM. This molecule registered a CC50 at 5 days in data set [5] greater than 63.1 µM.

As to `Fc1ccc(Nc2c(-c3ccccn3)nc3ccncn23)cc1` [Compound 3g, N-(4-Fluorophenyl)-2-(pyridin-2-yl)imidazo[1,2-c]pyrimidin-3-amine], in data set [1], the EC50 was 50.1 µM and the SI is on record as 1. This molecule also yielded an aq. sol. in data set [4] of 64 µM. In data set [5], the CC50 at 5 days was greater than 63.1 µM.

As for `COc1ccc2nc(-c3ccccn3)c(Nc3ccc(F)cc3)n2c1` [Compound 3f, N-(4-Fluorophenyl)-6-methoxy-2-(pyridin-2-yl)imidazo[1,2-a]pyridin-3-amine], in data set [1], the EC50 is 2 µM and the SI came to 16. Besides, in data set [5], the half-maximal cytotoxic concentration (CC50) at 5 days is 31.6 µM.
